Where two headings read alike, the source gives them in different places.
Tests used:
cyclooxygenase = molecular target: T1, cyclooxygenase (Rattus norvegicus, UniProt Q63921); assay: ARBC whole cell cyclooxygenase assay: inhibition of PGF2α formation in A23187-stimulated RBL-1 cells; type: cell-based; settings: RBL-1 whole cells; for IC50: RIA of PGF2α
T1 construct: host or cells: RBL-1 (rat basophilic leukemia)
T1 sequence (Q63921 27-602): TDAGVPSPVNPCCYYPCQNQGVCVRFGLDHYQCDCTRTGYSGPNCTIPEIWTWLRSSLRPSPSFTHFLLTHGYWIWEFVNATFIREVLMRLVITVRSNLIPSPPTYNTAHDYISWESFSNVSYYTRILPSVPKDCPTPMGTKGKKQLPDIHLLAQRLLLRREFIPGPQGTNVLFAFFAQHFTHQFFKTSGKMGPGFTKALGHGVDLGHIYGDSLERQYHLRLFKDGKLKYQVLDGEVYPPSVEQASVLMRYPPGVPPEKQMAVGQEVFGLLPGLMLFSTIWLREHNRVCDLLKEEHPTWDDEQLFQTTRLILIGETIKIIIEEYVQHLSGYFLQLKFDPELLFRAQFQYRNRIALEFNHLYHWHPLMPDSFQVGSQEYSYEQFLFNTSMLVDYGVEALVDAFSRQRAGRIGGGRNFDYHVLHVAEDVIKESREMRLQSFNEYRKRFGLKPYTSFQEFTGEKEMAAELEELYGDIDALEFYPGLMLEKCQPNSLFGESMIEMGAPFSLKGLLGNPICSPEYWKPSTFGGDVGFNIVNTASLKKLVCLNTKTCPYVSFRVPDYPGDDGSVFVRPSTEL
Protocol: (§1) ARBL/ARBC WHOLE CELL 5-LIPOXYGENASE AND CYCLOOXYGENASE ASSAYS
(§2) The rat basophilic leukemia cell line (RBL-1) was obtained from the American Type Culture Collection (Rockville, MD).
(§3) Radioimmunoassay (RIA) kits of LTB4 and PGF2α were obtained from Amersham (Arlington Heights, Ill.) and Seragen (Boston, Mass.), respectively.
(§4) RBL-1 cells are grown in suspension culture in Eagle's minimum essential medium supplemented with 12% fetal bovine serum at 37° C. in an incubator supplied with air 5% carbon dioxide. Cells are harvested by centrifugation. They are washed with cold phosphate-buffered saline, pH 7.4 (PBS; NaCl, 7.1 g; Na2 HPO4, 1.15 g; KH2 PO4, 0.2 g; and KCl, 0.2 g/L). Cells are finally suspended in PBS containing 1.0 mM calcium at a density of 2 × 10^6 cells/mL Cells are incubated and without test agent (in DMSO) (1% DMSO is without effect on arachidonic acid metabolism) for 10 minutes at room temperature. Calcium ionophore A23187 (5 μM) is added and cells are incubated for 7 minutes at 37° C. The reaction is stopped by chilling the tubes on ice for 10 minutes. Cells are separated by centrifugation and the supernatant is stored at -20° C. Aliquots (100 μL) are analyzed for LTB4 and PGF2α using radioimmunoassay kits as provided by the supplier.
(§5) Table 1 contains biochemical data for compounds of Formula I obtained from this whole cell assay as amount of inhibition at 10 μM or IC50 s which are calculated as the concentration of a test compound in micromoles (μM) causing 50% inhibition of LTB4 or PGF2α formation.

5-lipoxygenase = molecular target: T2, 5-lipoxygenase (Rattus norvegicus, UniProt P12527); assay: ARBL whole cell 5-lipoxygenase assay: inhibition of LTB4 formation in A23187-stimulated RBL-1 cells; type: cell-based; settings: RBL-1 whole cells; for IC50: RIA of LTB4
T2 construct: host or cells: RBL-1 (rat basophilic leukemia)
T2 sequence (P12527 1-673): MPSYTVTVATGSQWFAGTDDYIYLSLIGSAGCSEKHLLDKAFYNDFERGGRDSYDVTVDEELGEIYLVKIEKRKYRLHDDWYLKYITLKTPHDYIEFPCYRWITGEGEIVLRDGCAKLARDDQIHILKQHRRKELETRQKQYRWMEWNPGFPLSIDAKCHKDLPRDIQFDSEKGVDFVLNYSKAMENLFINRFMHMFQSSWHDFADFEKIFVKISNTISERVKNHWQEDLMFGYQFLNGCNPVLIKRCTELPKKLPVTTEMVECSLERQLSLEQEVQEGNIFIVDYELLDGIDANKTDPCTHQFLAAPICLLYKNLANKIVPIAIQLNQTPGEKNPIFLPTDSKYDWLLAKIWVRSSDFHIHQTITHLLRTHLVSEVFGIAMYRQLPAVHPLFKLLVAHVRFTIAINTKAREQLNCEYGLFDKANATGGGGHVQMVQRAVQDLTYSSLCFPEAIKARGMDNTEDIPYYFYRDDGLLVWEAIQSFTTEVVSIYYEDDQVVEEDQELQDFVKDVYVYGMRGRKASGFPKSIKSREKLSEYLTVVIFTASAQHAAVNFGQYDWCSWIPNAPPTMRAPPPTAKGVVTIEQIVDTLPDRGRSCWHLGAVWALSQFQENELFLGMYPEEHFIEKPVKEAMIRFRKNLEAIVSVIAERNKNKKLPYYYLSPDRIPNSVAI
Protocol: as §1, §2, §3, §4, §5

[1] = read-out: ARBC, inhibition of PGF2α at 10 μM (class symbol)
[2] = read-out: ARBL, amount of inhibition of LTB4 at 10 μM
[3] = read-out: ARBL, inhibition of LTB4 at 10 μM (class symbol)

An inhibition at 10 µM (cyclooxygenase; [1]) of under 40% and an inhibition at 10 µM (5-lipoxygenase; [2]) of 66% were found for `CC(=O)N(O)C(C)c1cccc(Nc2ccccc2-c2n[nH]c(=S)o2)c1C` (stereo not shown) [Example 8, N-[1-[3-[[2-(4,5-dihydro-5 thioxo 1,3,4-oxadiazol-2 yl)phenyl]amino]-2 methylphenyl]ethyl]-N-hydroxyacetamide] in this work.

An inhibition at 10 µM (cyclooxygenase; [1]) of under 40% and an inhibition at 10 µM (5-lipoxygenase; [2]) of 100% were found for `CC(=O)N(O)C(C)c1cccc(Nc2ccccc2-c2nnc(N)o2)c1Cl` (stereo not shown) [Example 17, N-[1-[3-[[2-(5-Amino-1,3,4-oxadiazol-2-yl)phenyl]amino]-2-chlorophenyl]ethyl]-N-hydroxyacetamide] in this work.

An IC50 (cyclooxygenase) of 1070 nM and an IC50 (5-lipoxygenase) of 9590 nM were found for `CC(=O)N(O)C(C)c1cccc(Nc2ccccc2-c2n[nH]c(=S)o2)c1Cl` (stereo not shown) [Example 7, N-[1-[3-[[2-(4,5-Dihydro-5-thioxo-1,3,4 oxadiazol-2-yl)phenyl]amino]-2-chlorophenyl]ethyl]-N-hydroxy Acetamide] in this work.

An inhibition at 10 µM (cyclooxygenase; [1]) of under 40% and an inhibition at 10 µM (5-lipoxygenase; [3]) of under 40% were found for `CC(=O)N(O)C(C)c1cccc(Nc2ccccc2-c2n[nH]c(=S)o2)c1` (stereo not shown) [Example 10, N-[1-[3-[[2-(4,5-dihydro-5-thioxo-1,3,4-oxadiazol-2-yl)phenyl]amino]phenyl]ethyl]-N-hydroxyacetamide] in this work.

An IC50 (cyclooxygenase) of 360 nM and an IC50 (5-lipoxygenase) of 1870 nM were found for `CNC(=O)N(O)C(C)c1cccc(Nc2ccccc2-c2n[nH]c(=O)o2)c1Cl` (stereo not shown) [Example 16] in this work.

An IC50 (cyclooxygenase) of 860 nM and an IC50 (5-lipoxygenase) of 1090 nM were found for `CCOC(=O)N(O)C(C)c1cccc(Nc2ccccc2-c2n[nH]c(=O)o2)c1Cl` (stereo not shown) [Example 15, Ethyl ester of [1-[2-chloro-3-[[2-(4,5-dihydro-5-oxo-1,3,4-voxadiazol-2-yl)phenyl]amino]phenyl]-ethyl]hydroxycarbamic acid] in this work.

An inhibition at 10 µM (cyclooxygenase; [1]) of under 40% and an inhibition at 10 µM (5-lipoxygenase; [2]) of 100% were found for `CC(=O)N(O)C(C)c1cccc(Nc2ccccc2-c2n[nH]c(=O)o2)c1` (stereo not shown) [Example 14, N-[1-[3-[[2-(4,5-dihydro-5-oxo-1,3,4-oxadiazol-2-yl)phenyl]amino]phenyl]ethyl]-N-hydroxyacetamide] in this work.

An IC50 (cyclooxygenase) of 910 nM and an IC50 (5-lipoxygenase) of 1140 nM were found for `CCOC(=O)N(O)C(C)c1cccc(Nc2ccccc2-c2n[nH]c(=S)o2)c1Cl` (stereo not shown) [Example 11, Ethyl ester of [1-[2-chloro-3-[[2-(4,5-dihydro-5-thioxo-1,3,4 oxadiazol-2-yl)phenyl]amino]phenyl]-ethyl]hydroxycarbamic acid] in this work.

An IC50 (cyclooxygenase) of 1880 nM and an IC50 (5-lipoxygenase) of 680 nM were found for `CC(=O)N(O)C(C)c1cccc(Nc2ccccc2-c2n[nH]c(=O)o2)c1Cl` (stereo not shown) [Example 13] in this work.

An inhibition at 10 µM (cyclooxygenase; read-out: ARBC, amount of inhibition of PGF2α at 10 μM) of 100% and an inhibition at 10 µM (5-lipoxygenase; [3]) of under 40% were found for `CNC(=O)N(O)C(C)c1cccc(Nc2ccccc2-c2n[nH]c(=S)o2)c1Cl` (stereo not shown) [Example 12, N-[1-[2-chloro-3-[[(4,5-dihydro-5-thioxo-1,3,4-oxadiazol-2-yl)phenyl]amino]phenyl]ethyl]-N-hydroxy-N'-methylurea] in this work.

An IC50 (cyclooxygenase) of over 10000 nM and an IC50 (5-lipoxygenase) of 5930 nM were found for `CC(=O)N(O)C(C)c1c(C)ccc(Nc2ccccc2-c2n[nH]c(=S)o2)c1C` (stereo not shown) [Example 9, N-[1-[3-[[2-(4,5-dihydro-5-thioxo 1,3,4-oxadiazol-2 yl)phenyl]amino]-2,6 dimethylphenyl]ethyl]-N-hydroxyacetamide] in this work.
